The results in this text go back to ChEMBL document CHEMBL4622942, “Design, synthesis and biological evaluation of potent EGFR kinase inhibitors against 19D/T790M/C797S mutation” (Bioorg Med Chem Lett, 2020).

Calls of active or inactive are those of the source. The calls are words filed in the database; no cut-off is given here.

Test [1] deals with Epidermal growth factor receptor (Homo sapiens, UniProt P00533). Nature of the test: Inhibition of wild type EGFR (unknown origin) by ELISA.
The target in test [2] is Epidermal growth factor receptor (Homo sapiens, UniProt P00533, L858R/T790M). Nature of the test: Inhibition of EGFR L858R/T790M mutant (unknown origin) by ELISA.
Test [3] addresses Epidermal growth factor receptor (Homo sapiens, UniProt P00533, C797S/L858R/T790M). Nature of the test: Inhibition of EGFR L858R/T790M/C797S mutant (unknown origin) by ELISA. For orientation: An ELISA detects its analyte on a solid surface through an enzyme-linked reagent.
For test [4], the target named is Epidermal growth factor receptor (Homo sapiens, UniProt P00533, C797S/EX19DEL/T790M). Nature of the test: Inhibition of EGFR 19D/T790M/C797S mutant (unknown origin) by ELISA.
A further test has as its system A-431. Nature of the test: Antiproliferative activity against human A431 cells overexpressing EGFR assessed as reduction in cell viability by CCK8 assay. The format is functional, cell-based. Background: Tetrazolium assays rely on reduction of a dye to a coloured formazan, in cell work by metabolically active cells.
The subject of the next test is NCI-H1975. Nature of the test: Antiproliferative activity against human NCI-H1975 cells harboring EGFR L858R/T790M mutant assessed as reduction in cell viability by CCK8 assay. The format is functional, cell-based.
Test [5] deals with BaF3. Nature of the test: Antiproliferative activity against mouse BAF3 cells harboring EGFR 19D/T790M/C797S mutant assessed as reduction in cell viability by CCK8 assay. In kind it is functional, cell-based.
In test [6] the test system is BaF3. Put plainly: Cell cycle arrest in mouse BAF3 cells harboring EGFR 19D/T790M/C797S mutant assessed as accumulation at G1 phase at 1 uM measured after 24 hrs by flow cytometry analysis (reference value: 39.62 %). The format is functional. Background: In flow cytometry, cells or beads pass a laser one at a time.
Test [7] has as its system BaF3. Nature of the test: Cell cycle arrest in mouse BAF3 cells harboring EGFR 19D/T790M/C797S mutant assessed as accumulation at S phase at 1 uM measured after 24 hrs by flow cytometry analysis (reference value: 52.43 %). In kind it is functional.
In test [8] the test system is BaF3. Put plainly: Cell cycle arrest in mouse BAF3 cells harboring EGFR 19D/T790M/C797S mutant assessed as accumulation at G2 phase at 1 uM measured after 24 hrs by flow cytometry analysis (reference value: 7.94 %). The format is functional.
Test [9] is described as follows: Selectivity index, ratio of IC50 for human A431 cells overexpressing EGFR assessed as reduction in cell viability by CCK8 assay to IC50 for human NCI-H1975 cells harboring EGFR […]/T790M assessed as reduction in cell viability by CCK8 assay. In kind it is functional.
Test [10] is described as follows: Selectivity index, ratio of IC50 for human A431 cells overexpressing EGFR assessed as reduction in cell viability by CCK8 assay to IC50 for mouse BAF3 cells harboring EGFR 19D/T790M/C797S assessed as reduction in cell viability by CCK8 assay. The format is functional.
Test [11] relates to BaF3. Nature of the test: Induction of apoptosis in mouse BAF3 cells harboring EGFR 19D/T790M/C797S mutant assessed as live cells at 1 uM measured after 24 hrs by annexinV-FITC/propidium iodide staining based flow cytometry analysis (reference value: 82.74 %). In kind it is functional.
For test [12], the system named is BaF3. Nature of the test: Induction of apoptosis in mouse BAF3 cells harboring EGFR 19D/T790M/C797S mutant assessed as early apoptotic cells at 1 uM measured after 24 hrs by annexinV-FITC/propidium iodide staining based flow cytometry analysis (reference value: 15.09 %). In kind it is functional.
The subject of test [13] is BaF3. Nature of the test: Induction of apoptosis in mouse BAF3 cells harboring EGFR 19D/T790M/C797S mutant assessed as late apoptotic cells at 1 uM measured after 24 hrs by annexinV-FITC/propidium iodide staining based flow cytometry analysis (reference value: 2.03 %). In kind it is functional.
Test [14] relates to BaF3. Nature of the test: Induction of apoptosis in mouse BAF3 cells harboring EGFR 19D/T790M/C797S mutant assessed as necrotic cells at 1 uM measured after 24 hrs by annexinV-FITC/propidium iodide staining based flow cytometry analysis (reference value: 0.13 %). The format is functional.
Test [15] relates to BaF3. Put plainly: Induction of apoptosis in mouse BAF3 cells harboring EGFR 19D/T790M/C797S mutant assessed as live cells at 10 uM measured after 24 hrs by annexinV-FITC/propidium iodide staining based flow cytometry analysis (reference value: 82.74 %). The format is functional.
Test [16] relates to BaF3. Put plainly: Induction of apoptosis in mouse BAF3 cells harboring EGFR 19D/T790M/C797S mutant assessed as early apoptotic cells at 10 uM measured after 24 hrs by annexinV-FITC/propidium iodide staining based flow cytometry analysis (reference value: 15.09 %). The format is functional.
The test system of test [17] is BaF3. Put plainly: Induction of apoptosis in mouse BAF3 cells harboring EGFR 19D/T790M/C797S mutant assessed as late apoptotic cells at 10 uM measured after 24 hrs by annexinV-FITC/propidium iodide staining based flow cytometry analysis (reference value: 2.03 %). In kind it is functional.
Test [18] has as its system BaF3. Nature of the test: Induction of apoptosis in mouse BAF3 cells harboring EGFR 19D/T790M/C797S mutant assessed as necrotic cells at 10 uM measured after 24 hrs by annexinV-FITC/propidium iodide staining based flow cytometry analysis (reference value: 0.13 %). In kind it is functional.
The test system of test [19] is BaF3. Nature of the test: Induction of apoptosis in mouse BAF3 cells harboring EGFR 19D/T790M/C797S mutant assessed as live cells at 50 uM measured after 24 hrs by annexinV-FITC/propidium iodide staining based flow cytometry analysis (reference value: 82.74 %). The format is functional.
In test [20] the test system is BaF3. Put plainly: Induction of apoptosis in mouse BAF3 cells harboring EGFR 19D/T790M/C797S mutant assessed as early apoptotic cells at 50 uM measured after 24 hrs by annexinV-FITC/propidium iodide staining based flow cytometry analysis (reference value: 15.09 %). In kind it is functional.
Test [21] has as its system BaF3. Put plainly: Induction of apoptosis in mouse BAF3 cells harboring EGFR 19D/T790M/C797S mutant assessed as late apoptotic cells at 50 uM measured after 24 hrs by annexinV-FITC/propidium iodide staining based flow cytometry analysis (reference value: 2.03 %). In kind it is functional.
Test [22] has as its system BaF3. Nature of the test: Induction of apoptosis in mouse BAF3 cells harboring EGFR 19D/T790M/C797S mutant assessed as necrotic cells at 50 uM measured after 24 hrs by annexinV-FITC/propidium iodide staining based flow cytometry analysis (reference value: 0.13 %). In kind it is functional.
Test [23] has as its system BaF3. Put plainly: Induction of apoptosis in mouse BAF3 cells harboring EGFR 19D/T790M/C797S mutant measured after 24 hrs by annexinV-FITC/propidium iodide staining based flow cytometry analysis. In kind it is functional, cell-based.
The subject of test [24] is BaF3. Put plainly: Cell cycle arrest in mouse BAF3 cells harboring EGFR 19D/T790M/C797S mutant assessed as accumulation at G1 phase at 10 uM measured after 24 hrs by flow cytometry analysis (reference value: 39.62 %). The format is functional.
Test [25] concerns BaF3. Nature of the test: Cell cycle arrest in mouse BAF3 cells harboring EGFR 19D/T790M/C797S mutant assessed as accumulation at S phase at 10 uM measured after 24 hrs by flow cytometry analysis (reference value: 52.43 %). In kind it is functional.
Test [26] concerns BaF3. Put plainly: Cell cycle arrest in mouse BAF3 cells harboring EGFR 19D/T790M/C797S mutant assessed as accumulation at G2 phase at 10 uM measured after 24 hrs by flow cytometry analysis (reference value: 7.94 %). The format is functional.
The test system of test [27] is BaF3. Put plainly: Cell cycle arrest in mouse BAF3 cells harboring EGFR 19D/T790M/C797S mutant assessed as accumulation at G1 phase at 20 uM measured after 24 hrs by flow cytometry analysis (reference value: 39.62 %). The format is functional.
The subject of test [28] is BaF3. Nature of the test: Cell cycle arrest in mouse BAF3 cells harboring EGFR 19D/T790M/C797S mutant assessed as accumulation at S phase at 20 uM measured after 24 hrs by flow cytometry analysis (reference value: 52.43 %). The format is functional.
For test [29], the system named is BaF3. Nature of the test: Cell cycle arrest in mouse BAF3 cells harboring EGFR 19D/T790M/C797S mutant assessed as accumulation at G2 phase at 20 uM measured after 24 hrs by flow cytometry analysis (reference value: 7.94 %). In kind it is functional.
In test [30] the test system is Epidermal growth factor receptor (Homo sapiens), P00533 [UNDEFINED MUTATION]. Put plainly: Inhibition of EGFR 19D/T790M/C797S mutant (unknown origin) expressed in mouse BAF3 cells assessed as reduction in EGF-stimulated EGFR phosphorylation pretreated for 3 hrs followed by EGF stimulation by Western blot analysis. In kind it is cell-based.
The test system is the same in test [31]. Put plainly: Inhibition of EGFR 19D/T790M/C797S mutant (unknown origin) expressed in mouse BAF3 cells assessed as reduction in EGF-stimulated ERK phosphorylation pretreated for 3 hrs followed by EGF stimulation by Western blot analysis. The format is cell-based.
Test [32] shares this test system. Put plainly: Inhibition of EGFR 19D/T790M/C797S mutant (unknown origin) expressed in mouse BAF3 cells assessed as reduction in EGF-stimulated Akt phosphorylation at 5 to 100 uM pretreated for 3 hrs followed by EGF stimulation by Western blot analysis. The format is cell-based.
The test system of test [33] is BaF3. Nature of the test: Cell cycle arrest in mouse BAF3 cells harboring EGFR 19D/T790M/C797S mutant assessed as accumulation at G1 phase measured after 24 hrs by flow cytometry analysis. In kind it is functional, cell-based.

Chain of Epidermal growth factor receptor (Homo sapiens), P00533 [UNDEFINED MUTATION] (P00533 whole entry, looked up, stated change not applied): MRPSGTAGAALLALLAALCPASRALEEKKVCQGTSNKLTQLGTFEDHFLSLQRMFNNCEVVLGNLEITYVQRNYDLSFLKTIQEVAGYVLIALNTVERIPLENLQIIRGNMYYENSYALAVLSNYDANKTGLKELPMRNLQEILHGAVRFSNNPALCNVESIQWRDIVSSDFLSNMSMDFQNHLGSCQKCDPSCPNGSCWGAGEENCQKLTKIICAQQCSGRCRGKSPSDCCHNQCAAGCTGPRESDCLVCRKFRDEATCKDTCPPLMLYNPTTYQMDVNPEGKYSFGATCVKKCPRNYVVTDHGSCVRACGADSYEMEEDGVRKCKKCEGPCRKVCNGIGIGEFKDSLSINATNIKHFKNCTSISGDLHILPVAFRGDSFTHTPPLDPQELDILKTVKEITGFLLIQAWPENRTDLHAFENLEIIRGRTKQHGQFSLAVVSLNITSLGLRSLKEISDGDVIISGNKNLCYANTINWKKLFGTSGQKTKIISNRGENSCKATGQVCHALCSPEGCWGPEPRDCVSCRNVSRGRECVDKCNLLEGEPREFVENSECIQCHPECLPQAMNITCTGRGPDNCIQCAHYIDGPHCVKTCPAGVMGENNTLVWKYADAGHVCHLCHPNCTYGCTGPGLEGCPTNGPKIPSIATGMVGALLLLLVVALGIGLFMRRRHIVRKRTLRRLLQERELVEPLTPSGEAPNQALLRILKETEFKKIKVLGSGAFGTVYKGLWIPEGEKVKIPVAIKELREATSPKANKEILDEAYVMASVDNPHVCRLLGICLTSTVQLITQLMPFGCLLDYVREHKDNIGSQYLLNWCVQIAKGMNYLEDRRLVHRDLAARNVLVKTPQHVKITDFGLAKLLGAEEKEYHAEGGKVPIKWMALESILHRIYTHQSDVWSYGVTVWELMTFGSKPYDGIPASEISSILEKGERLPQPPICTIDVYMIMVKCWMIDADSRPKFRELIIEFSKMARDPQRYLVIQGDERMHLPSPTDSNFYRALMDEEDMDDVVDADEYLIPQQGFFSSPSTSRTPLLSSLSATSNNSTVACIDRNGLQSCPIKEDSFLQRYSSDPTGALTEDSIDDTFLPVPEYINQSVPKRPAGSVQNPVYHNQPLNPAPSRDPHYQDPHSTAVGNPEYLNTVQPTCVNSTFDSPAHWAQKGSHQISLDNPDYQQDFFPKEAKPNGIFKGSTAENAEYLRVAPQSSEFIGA
Chain of Epidermal growth factor receptor (Homo sapiens, UniProt P00533) (P00533 whole entry): as the sequence (P00533 whole entry, looked up, stated change not applied) above
Chain of Epidermal growth factor receptor (Homo sapiens, UniProt P00533, C797S/EX19DEL/T790M) (P00533 whole entry, looked up, stated change not applied): as above
Chain of Epidermal growth factor receptor (Homo sapiens, UniProt P00533, C797S/L858R/T790M) (P00533 25-1210 T790M/C797S/L858R limits assumed): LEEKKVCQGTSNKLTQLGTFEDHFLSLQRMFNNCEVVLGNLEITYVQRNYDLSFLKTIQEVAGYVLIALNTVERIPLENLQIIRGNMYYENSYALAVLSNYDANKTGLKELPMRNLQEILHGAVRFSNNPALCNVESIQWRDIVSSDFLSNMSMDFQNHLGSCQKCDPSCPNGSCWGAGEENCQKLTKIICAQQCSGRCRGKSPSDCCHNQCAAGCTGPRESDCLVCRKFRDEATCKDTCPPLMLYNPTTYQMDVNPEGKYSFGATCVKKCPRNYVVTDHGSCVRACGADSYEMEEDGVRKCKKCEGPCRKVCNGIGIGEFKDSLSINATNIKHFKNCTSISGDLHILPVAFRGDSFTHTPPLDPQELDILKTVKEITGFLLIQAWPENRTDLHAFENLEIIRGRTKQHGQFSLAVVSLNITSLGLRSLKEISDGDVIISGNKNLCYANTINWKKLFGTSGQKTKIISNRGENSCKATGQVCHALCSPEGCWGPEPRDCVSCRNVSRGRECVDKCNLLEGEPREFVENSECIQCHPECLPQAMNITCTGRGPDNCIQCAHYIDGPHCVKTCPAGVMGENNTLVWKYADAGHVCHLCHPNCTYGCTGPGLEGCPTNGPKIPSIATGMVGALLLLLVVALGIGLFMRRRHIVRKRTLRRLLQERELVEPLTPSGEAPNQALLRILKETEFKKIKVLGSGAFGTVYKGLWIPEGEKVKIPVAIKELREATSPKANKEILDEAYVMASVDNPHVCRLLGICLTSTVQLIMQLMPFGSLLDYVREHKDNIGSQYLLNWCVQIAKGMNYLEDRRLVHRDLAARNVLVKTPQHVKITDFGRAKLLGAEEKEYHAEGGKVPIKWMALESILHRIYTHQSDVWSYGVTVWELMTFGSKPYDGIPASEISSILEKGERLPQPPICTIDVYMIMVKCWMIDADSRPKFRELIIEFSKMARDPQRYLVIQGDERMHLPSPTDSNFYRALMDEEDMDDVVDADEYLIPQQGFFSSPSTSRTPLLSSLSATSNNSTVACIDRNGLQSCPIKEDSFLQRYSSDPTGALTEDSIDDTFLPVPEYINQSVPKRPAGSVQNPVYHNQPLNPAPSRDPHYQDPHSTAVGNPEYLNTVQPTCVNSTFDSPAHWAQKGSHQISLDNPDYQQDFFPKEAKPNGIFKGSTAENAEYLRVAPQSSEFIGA

By IC50 is commonly meant the concentration that gives 50% inhibition. For the molecule `CCC(=O)Nc1cc(Nc2nccc(-c3cn(CCCO)c4ccccc34)n2)c(OC)cc1F`, the IC50 in [1] is above 1000 nM; in test [2] it was 127 nM; in test [3], 422 nM; in test [4], 72.5 nM.
For the molecule `C=CC(=O)Nc1cc(Nc2nccc(-c3cn(C)c4ccccc34)n2)c(OC)cc1N(C)CCN(C)C` [OSIMERTINIB], the IC50 in the test on A-431 was […]; in the test on NCI-H1975 it was […]; in the test with BaF3 [5], 5470 nM. In addition, the Activity was found to be 45.49% with BaF3 [6], 45.58% in the test on BaF3 [7] and 8.93% in the test on BaF3 [8].
Take `CCC(=O)Nc1cc(Nc2nccc(-c3cn(CCO)c4ccccc34)n2)c(OC)cc1F`: the IC50 in [1] is above 1000 nM; in test [2], 170 nM; in [3] it was above 1000 nM; in test [4], 80.5 nM.
Turning to `CCC(=O)Nc1cc(Nc2nccc(-c3cn(CCCO)c4ccc(F)cc34)n2)c(OC)cc1F`, the IC50 was above 1000 nM in [1], 142 nM in [2], 332 nM in test [3] and 40.4 nM in test [4].
For `C=CC(=O)Nc1cc(Nc2nccc(-c3cn(CCCO)c4ccccc34)n2)c(OC)cc1F`, in that order: 283 nM, 2.2 nM, above 1000 nM and 17.9 nM.
For `COc1cc(N(C)CCN(C)C)ccc1Nc1nccc(-c2cn(CCCO)c3ccccc23)n1`, the IC50 in [1] is above 1000 nM; in test [2] it was 157 nM; in [3] it was 218 nM; in test [4], 15.3 nM; in the test on A-431, 20500 nM; in the test on NCI-H1975 it was 16200 nM. Also, the IC50 with BaF3 [5] is 8510 nM. The “Ratio IC50” value in [9] is listed as 1.27; in test [10], 2.41. Also, the Activity stood at 80.07% in the test with BaF3 [11]; 17% with BaF3 [12]; 2.74% in the test on BaF3 [13]; 0.19% with BaF3 [14]; 60.89% with BaF3 [15]; 24.18% in the test on BaF3 [16]. The Activity in the test on BaF3 [17] worked out at 14.53%; in the test with BaF3 [18], 0.4%; in the test on BaF3 [19] it was 1.76%; in the test on BaF3 [20], 74.01%; in the test on BaF3 [21], 23.81%; in the test with BaF3 [22], 0.42%. Also, the Activity result in the test with BaF3 [23] was “Dose-dependent effect”; with BaF3 [6], 48%; with BaF3 [7], 40.51%; with BaF3 [8] it was 10.52%; with BaF3 [24] it was 51.94%; with BaF3 [25] it was 37.81%. Moreover, the Activity in the test on BaF3 [26] is 10.25%; with BaF3 [27] it was 53.37%; with BaF3 [28] it was 26.61%; in the test with BaF3 [29] it was 10.02%; in the test on BaF3 [33], “Dose-dependent effect”. In addition, the inhibition entry in test [30] and in test [31] was “Dose-dependent effect” each time. For the same molecule, the inhibition entry in [32] was “Active”.
Regarding `CCC(=O)Nc1cc(Nc2nccc(-c3cn(CCCO)c4ccccc34)n2)c(OC)cc1N(C)CCN(C)C`, the IC50 in [1] is above 1000 nM; in test [2], 169 nM; in [3] it was 638 nM; in test [4] it was 73 nM.
In the case of `CCC(=O)Nc1cc(Nc2nccc(-c3c[nH]c4c(CCO)cccc34)n2)c(OC)cc1F`, the IC50 was above 1000 nM in test [1], 208 nM in test [2], above 1000 nM in test [3] and 663 nM in test [4].
